For 52 molecules, IC50 results are on record in patent publication US11352330B2, “Phenoxymethyl derivatives” (Hoffmann-La Roche Inc., priority 2015, dated 2022).

Structures are written as SMILES.

This assay deals with human ATX (Homo sapiens (Human), UniProt Q13822). Kind of assay: Human ATX enzyme inhibition assay (fluorescence quenching, MR121 substrate). Particulars: human His-tagged ATX 30 nM, MR121 substrate 1 μM, 30° C. The assay is classed as biochemical. Here is the method:
Human ATX Enzyme Inhibition Assay
ATX inhibition was measured by a fluorescence quenching assay using a specifically labeled substrate analogue (MR121 substrate). To obtain this MR121 substrate, BOC and TBS protected 6-amino-hexanoic acid (R)-3-({2-[3-(2-{2-[2-(2-amino-ethoxy)-ethoxy]-ethoxy}-ethoxy)-propionylamino]-ethoxy}-hydroxy-phosphoryloxy)-2-hydroxy-propyl ester (Ferguson et al., Org Lett 2006, 8 (10), 2023) was labeled with MR121 fluorophore (CAS 185308-24-1, 1-(3-carboxypropyl)-11-ethyl-1,2,3,4,8,9,10,11-octahydro-dipyrido[3,2-b:2′,3′-i]phenoxazin-13-ium) on the free amine of the ethanolamine side and then, after deprotection, subsequently with tryptophan on the side of the aminohexanoic acid.
Assay working solutions were made as follows:
Assay buffer (50 mM Tris-HCl, 140 mM NaCl, 5 mM KCl, 1 mM CaCl2, 1 mM MgCl2, 0.01% Triton-X-100, pH 8.0;
ATX solution: ATX (human His-tagged) stock solution (1.08 mg/mL in 20 mM bicine, pH 8.5, 0.15 M NaCl, 10% glycerol, 0.3% CHAPS, 0.02% NaN3), diluted to 1.4-2.5× final concentration in assay buffer;
MR121 substrate solution: MR121 substrate stock solution (800 μM MR121 substrate in DMSO), diluted to 2-5× final concentration in assay buffer.
Test compounds (10 mM stock in DMSO, 8 μL) were obtained in 384 well sample plates (Corning Costar #3655) and diluted with 8 μL DMSO. Row-wise serial dilutions were made by transferring 8 μL cpd solution to the next row up to row O. The compound and control solutions were mixed five times and 2 μL were transferred to 384 well assay plates (Corning Costar #3702). Then, 15 μL of 41.7 nM ATX solution was added (30 nM final concentration), mixed five times and then incubated for 15 minutes at 30° C. 10 μL of MR121 substrate solution was added (1 μM final concentration), mixed 30 times and then incubated for 15 minutes at 30° C.
With `Cc1cc(OCc2n[nH]c(=O)n2C)c(-c2ncco2)cc1Cl` [Example B29, 3-[[4-Chloro-5-methyl-2-(1,3-oxazol-2-yl)phenoxy]methyl]-4-methyl-1H-1,2,4-triazol-5-one], the IC50 (as a rule, the concentration that inhibits the measured activity by half) is 78 nM.

Molecule `Cc1cc(OCc2n[nH]c(=O)n2C)c(-c2ccnn2C)cc1Cl` [Example B30] had an IC50 of 467 nM.

Consider `Cn1c(COc2cc(Cl)c(C#N)cc2-c2ccccc2)n[nH]c1=O` [Example B31], for which 43 nM corresponded to half-maximal inhibition (IC50).

Take `Cn1c(COc2cc(Cl)c(C#N)cc2-c2ccc(F)cc2)n[nH]c1=O` [Example B32]: it took 31 nM to reach half-maximal inhibition (IC50).

In turn, `CNC(=O)c1cccc(-c2cc(C#N)c(Cl)cc2OCc2n[nH]c(=O)n2C)c1` [Example B33] had an IC50 of 115 nM.

Regarding `Cn1c(COc2cc(Cl)c(C#N)cc2-c2cccc(-c3cc[nH]n3)c2)n[nH]c1=O` [Example B34, 2-Chloro-4-[(4-methyl-5-oxo-1H-1,2,4-triazol-3-yl)methoxy]-5-[3-(H-pyrazol-3-yl)phenyl]benzonitrile], the IC50 was 51 nM.

Molecule `Cc1nc(-c2cccc(-c3cc(C#N)c(Cl)cc3OCc3n[nH]c(=O)n3C)c2)no1` [Example B35] showed an IC50 of 81 nM.

As for `Cc1cc(OCc2n[nH]c(=O)n2C)c(-c2cccc(C(=O)NCCO)c2)cc1Cl` [Example B36], it took 82 nM to reach half-maximal inhibition (IC50).

`Cc1nnc(-c2cccc(-c3cc(C#N)c(Cl)cc3OCc3n[nH]c(=O)n3C)c2)o1` [Example B37] registered an IC50 of 79 nM.

The molecule `Cc1cc(OCc2n[nH]c(=O)n2C)c(-c2cc(C(=O)N(C)C)ccc2F)cc1Cl` [Example B38] displayed a half-maximal inhibitory concentration (IC50) of 8 nM.

For the molecule `CN(C)C(=O)c1cccc(-c2cc(C#N)c(Cl)cc2OCc2n[nH]c(=O)n2C)c1` [Example B39], the IC50 turned out to be 93 nM.

`Cc1cc(OCc2n[nH]c(=O)n2C)c(-c2cc(C(=O)N3CCOCC3)ccc2F)cc1Cl` [Example B40] returned an IC50 of 15 nM.

As for `Cn1c(COc2cc(Cl)c(C#N)cc2-c2cccc(C(=O)N3CCOCC3)c2)n[nH]c1=O` [Example B41], the IC50 was determined as 40 nM.

`COC(=O)c1cccc(-c2cc(Cl)c(C)cc2OCc2n[nH]c(=O)n2C)c1` [Example B42, Methyl 3-[5-chloro-4-methyl-2-[(4-methyl-5-oxo-1H-1,2,4-triazol-3-yl)methoxy]phenyl]benzoate] came in with a 50% inhibitory concentration (IC50) of 21 nM.

For `Cc1cc(OCc2n[nH]c(=O)n2C)c(-c2cccc(C(=O)O)c2)cc1Cl` [Example B43, 3-[5-Chloro-4-methyl-2-[(4-methyl-5-oxo-1H-1,2,4-triazol-3-yl)methoxy]phenyl]benzoic acid], the midpoint of inhibition, the IC50, lay at 1100 nM.

As to `COC(=O)CCNC(=O)c1cccc(-c2cc(Cl)c(C)cc2OCc2n[nH]c(=O)n2C)c1` [Example B44, Methyl 3-[[3-[5-chloro-4-methyl-2-[(4-methyl-5-oxo-1H-1,2,4-triazol-3-yl)methoxy]phenyl]benzoyl]amino]propanoate], the IC50 was determined as 13 nM.

Take `Cc1cc(OCc2n[nH]c(=O)n2C)c(-c2cccc(C(=O)N(C)CCO)c2)cc1Cl` [Example B45, 3-[5-Chloro-4-methyl-2-[(4-methyl-5-oxo-1H-1,2,4-triazol-3-yl)methoxy]phenyl]-N-(2-hydroxyethyl)-N-methylbenzamide]: it took 29 nM to reach half-maximal inhibition (IC50).

Consider `CCOC(=O)CNC(=O)c1cccc(-c2cc(Cl)c(C)cc2OCc2n[nH]c(=O)n2C)c1` [Example B46, Ethyl 2-[[3-[5-chloro-4-methyl-2-[(4-methyl-5-oxo-1H-1,2,4-triazol-3-yl)methoxy]phenyl]benzoyl]amino]acetate], for which the midpoint of inhibition, the IC50, lay at 7 nM.

With `Cc1cc(OCc2n[nH]c(=O)n2C)c(-c2cccc(C(=O)NCCC(=O)O)c2)cc1Cl` [Example B47], the IC50 was found to be 82 nM.

The molecule `Cc1cc(OCc2n[nH]c(=O)n2C)c(-c2cccc(C(=O)NCC(=O)O)c2)cc1Cl` [Example B48] returned an IC50 of 192 nM.

Consider `COC(=O)c1ccc(C)c(-c2cc(Cl)c(C)cc2OCc2n[nH]c(=O)n2C)c1` [Example B49, Methyl 3-[5-chloro-4-methyl-2-[(4-methyl-5-oxo-1H-1,2,4-triazol-3-yl)methoxy]phenyl]-4-methylbenzoate], for which the midpoint of inhibition, the IC50, lay at 8 nM.

Turning to `Cc1cc(OCc2n[nH]c(=O)n2C)c(-c2cc(C(=O)O)ccc2C)cc1Cl` [Example B50, 3-[5-chloro-4-methyl-2-[(4-methyl-5-oxo-1H-1,2,4-triazol-3-yl)methoxy]phenyl]-4-methylbenzoic acid], the IC50 was determined as 173 nM.

Molecule `Cc1cc(OCc2n[nH]c(=O)n2C)c(-c2cc(C(=O)N(C)C)ccc2C)cc1Cl` [Example B51, 3-[5-Chloro-4-methyl-2-[(4-methyl-5-oxo-1H-1,2,4-triazol-3-yl)methoxy]phenyl]-N,N,4-trimethylbenzamide] displayed an IC50 of 17 nM.

Consider `Cc1cc(OCc2n[nH]c(=O)n2C)c(-c2cc(C(N)=O)ccc2OC(F)(F)F)cc1Cl` [Example B52], for which the IC50 is 12 nM.

`COc1ncccc1-c1cc(Cl)c(C)cc1OCc1n[nH]c(=O)n1C` [Example B53] returned an IC50 of 42 nM.

The molecule `COc1ncccc1-c1cc(C#N)c(Cl)cc1OCc1n[nH]c(=O)n1C` [Example B54] yielded an IC50 of 29 nM.

The molecule `CCOc1ccc(F)c(-c2cc(Cl)c(C)cc2OCc2n[nH]c(=O)n2C)c1` [Example B55] showed a half-inhibitory concentration (IC50) of 9 nM.

Regarding `Cc1cc(OCc2n[nH]c(=O)n2C)c(-c2cc(OC(C)C)ccc2F)cc1Cl` [Example B57], 11 nM corresponded to half-maximal inhibition (IC50).

`Cc1cc(OCc2n[nH]c(=O)n2C)c(-c2cc(OCC(C)C)ccc2F)cc1Cl` [Example B58] had an IC50 of 16 nM.

On to `COc1ccc(C(F)(F)F)cc1-c1cc(Cl)c(C)cc1OCc1n[nH]c(=O)n1C` [Example B59], for which the IC50 is 25 nM.

With `COc1ccc(C(C)C)cc1-c1cc(Cl)c(C)cc1OCc1n[nH]c(=O)n1C` [Example B60], the IC50 was determined as 11 nM.

Consider `Cn1c(COc2cc(Cl)c(C#N)cc2-c2cc(C(=O)N3CCOCC3)ccc2F)n[nH]c1=O` [Example B61], for which the midpoint of inhibition, the IC50, lay at 10 nM.

Take `Cc1cc(OCc2n[nH]c(=O)n2C)c(-c2cc(C(=O)N3CCCC3)ccc2F)cc1Cl` [Example B62]: inhibition was half-maximal at 9 nM (IC50).

In turn, `Cc1cc(OCc2n[nH]c(=O)n2C)c(-c2cc(C(=O)N(C)C3CC3)ccc2F)cc1Cl` [Example B63] gave an IC50 of 10 nM.

As for `Cc1cc(OCc2n[nH]c(=O)n2C)c(-c2cc(C(=O)N(C)CCO)ccc2F)cc1Cl` [Example B64], inhibition was half-maximal at 21 nM (IC50).

The molecule `Cc1cc(OCc2n[nH]c(=O)n2C)c(-c2cc(C(=O)N3CCN(C)C(=O)C3)ccc2F)cc1Cl` [Example B65] displayed an IC50 of 13 nM.

`Cc1cc(OCc2n[nH]c(=O)n2C)c(-c2cc(C(=O)N(C)C3CCCC3)ccc2F)cc1Cl` [Example B66] registered an IC50 of 7 nM.

As for `Cc1cc(OCc2n[nH]c(=O)n2C)c(-c2cc(OCC3CCOC3)ccc2F)cc1Cl` (stereo not shown) [Example B67], the IC50 was found to be 6 nM.

Turning to `Cc1cc(OCc2n[nH]c(=O)n2C)c(-c2cc(C(=O)N(C)Cc3cccs3)ccc2F)cc1Cl` [Example B68], the IC50 is 7 nM.

As for `Cc1cc(OCc2n[nH]c(=O)n2C)c(-c2cc(C(=O)N3CCCCC3)ccc2F)cc1Cl` [Example B69], the IC50 stood at 9 nM.

As for `Cc1cc(OCc2n[nH]c(=O)n2C)c(-c2cc(C(=O)N(C)CC3CC3)ccc2F)cc1Cl` [Example B70], half-maximal inhibition (IC50) required 4 nM.

In turn, `Cc1cc(OCc2n[nH]c(=O)n2C)c(-c2cc(C(=O)N(C)Cc3ccccn3)ccc2F)cc1Cl` [Example B71] displayed an IC50 of 9 nM.

In turn, `Cc1cc(OCc2n[nH]c(=O)n2C)c(-c2cc(OCC3CCOCC3)ccc2F)cc1Cl` [Example B72] came in with an IC50 of 10 nM.

For `COCCN(C)C(=O)c1ccc(F)c(-c2cc(Cl)c(C)cc2OCc2n[nH]c(=O)n2C)c1` [Example B73], the IC50 worked out at 9 nM.

Molecule `Cc1cc(OCc2n[nH]c(=O)n2C)c(-c2cc(OCC3CCCO3)ccc2F)cc1Cl` (stereo not shown) [Example B74] had an IC50 of 6 nM.

With `Cc1cc(OCc2n[nH]c(=O)n2C)c(-c2cc(OCC(=O)N(C)C)ccc2F)cc1Cl` [Example B75], the IC50 turned out to be 10 nM.

`Cc1cc(OCc2n[nH]c(=O)n2C)c(-c2cc(CN3CC(=O)N(C)CC3=O)ccc2F)cc1Cl` [Example B76]: the IC50 was 11 nM.

In turn, `Cc1cc(OCc2n[nH]c(=O)n2C)c(-c2c(F)ccc3c2oc(=O)n3C)cc1Cl` [Example B77] had an IC50 of 15 nM.

The molecule `COCC(=O)N(C)Cc1ccc(F)c(-c2cc(Cl)c(C)cc2OCc2n[nH]c(=O)n2C)c1` [Example B78] gave an IC50 of 7 nM.

The molecule `Cc1cc(OCc2n[nH]c(=O)n2C)c(-c2cc(CNC(=O)C3CC3)ccc2F)cc1Cl` [Example B79] came in with a concentration for half-maximal inhibition (IC50) of 10 nM.

Turning to `Cc1cc(OCc2n[nH]c(=O)n2C)c(-c2cc(CN(C)C(=O)C3CC3)ccc2F)cc1Cl` [Example B80], the IC50 came out at 5 nM.

With `Cc1cc(OCc2n[nH]c(=O)n2C)c(-c2cc(CN3CCCC3=O)ccc2F)cc1Cl` [Example B81], the IC50 was found to be 3 nM.
